Experimental data reported in patent US20240239752A1, “BICYCLIC HETEROAROMATIC INHIBITORS OF KLK5” (BioCryst Pharmaceuticals, Inc., priority 2021, published 2024).

The compounds below were run against T1, recombinant human KLK5 (Homo sapiens, UniProt Q9Y337) (assay: Kallikrein (KLK) 5 enzymatic assay (Boc-VPR-AMC fluorogenic substrate)). Details: recombinant human KLK5 0.1 μg/well, Boc-VPR-AMC 100 μM, pH 7.5, room temperature, 1% DMSO; tested a minimum of three times.
T1 construct: purchased Novoprotein or R&D Systems C415 or 1108-SE
T1 sequence (Q9Y337 23-293): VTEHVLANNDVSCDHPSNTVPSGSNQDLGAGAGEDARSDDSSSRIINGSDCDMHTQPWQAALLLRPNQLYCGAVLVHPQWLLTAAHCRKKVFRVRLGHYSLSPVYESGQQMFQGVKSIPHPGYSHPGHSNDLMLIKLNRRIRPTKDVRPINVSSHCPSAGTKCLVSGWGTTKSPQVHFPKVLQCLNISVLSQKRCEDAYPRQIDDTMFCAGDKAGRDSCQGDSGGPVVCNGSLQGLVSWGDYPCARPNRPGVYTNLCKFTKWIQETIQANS
Assay type: biochemical
How it was run: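 Fluorogenic rate assay at pH 7.5 (0.1 M NaH2PO4, 1% DMSO, room temperature), run at least three times per compound. Compound was premixed with 0.1 μg/well recombinant human KLK5 before adding 100 μM Boc-VPR-AMC; AMC release was read at ex 380/em 460 nm, and IC50 derived from inhibition of rate vs DMSO control.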

SMILES	IC50 [µM]
COc1ccc(CC(=O)O)c(OCc2nn(C3CCC3)c3ccc(-c4cccc5c(N)nccc45)cc23)c1 [Compound 169c, 2-(2-((5-(1-aminoisoquinolin-5-yl)-1-cyclobutyl-1H-indazol-3-yl)methoxy)-4-methoxyphenyl)acetic acid]	< 1
COc1ccc(OCc2nn(C3CCC3)c3ccc(-c4ccc5ccnc(N)c5c4)cc23)c(CC(=O)O)c1 [Compound 170c, 2-(2-((5-(1-aminoisoquinolin-7-yl)-1-cyclobutyl-1H-indazol-3-yl)methoxy)-5-methoxyphenyl)acetic acid]	< 1
COc1ccc(OCc2nn(C3CCC3)c3ccc(-c4cccc5c(N)nccc45)cc23)c(CC(=O)O)c1 [Compound 171b, 2-(2-((5-(1-aminoisoquinolin-5-yl)-1-cyclobutyl-1H-indazol-3-yl)methoxy)-5-methoxyphenyl)acetic acid]	< 1
COc1cccc(OCc2nn(C3CCC3)c3ccc(-c4ccc5ccnc(N)c5c4)cc23)c1CC(=O)O [Compound 172d, 2-(2-((5-(1-aminoisoquinolin-7-yl)-1-cyclobutyl-1H-indazol-3-yl)methoxy)-6-methoxyphenyl)acetic acid]	1 to 10
COc1cccc(OCc2nn(C3CCC3)c3ccc(-c4cccc5c(N)nccc45)cc23)c1CC(=O)O [Compound 173b, 2-(2-((5-(1-aminoisoquinolin-5-yl)-1-cyclobutyl-1H-indazol-3-yl)methoxy)-6-methoxyphenyl)acetic acid]	< 1
CCOC(=O)Cc1cccc(C#N)c1OCc1nn(C2CCC2)c2ccc(Br)cc12 [Compound 174c, ethyl 2-(2-((5-bromo-1-cyclobutyl-1H-indazol-3-yl)methoxy)-3-cyanophenyl)acetate]	1 to 10
N#Cc1cccc(CC(=O)O)c1OCc1nn(C2CCC2)c2ccc(-c3cccc4c(N)nccc34)cc12 [Compound 175b, 2-(2-((5-(1-aminoisoquinolin-5-yl)-1-cyclobutyl-1H-indazol-3-yl)methoxy)-3-cyanophenyl)acetic acid]	1 to 10
Nc1nccc2ccc(-c3ccc4c(c3)c(COc3c(CC(=O)O)cccc3C(=O)O)nn4C3CCC3)cc12 [Compound 176a, 2-((5-(1-aminoisoquinolin-7-yl)-1-cyclobutyl-1H-indazol-3-yl)methoxy)-3-(carboxymethyl)benzoic acid]	< 1
Nc1nccc2c(-c3ccc4c(c3)c(COc3c(CC(=O)O)cccc3C(=O)O)nn4C3CCC3)cccc12 [Compound 177a, 2-((5-(1-aminoisoquinolin-5-yl)-1-cyclobutyl-1H-indazol-3-yl)methoxy)-3-(carboxymethyl)benzoic acid]	1 to 10
CCc1cccc(OCc2nn(C3CCC3)c3ccc(-c4ccc5ccnc(N)c5c4)cc23)c1CC(=O)O [Compound 180g, 2-(2-((5-(1-aminoisoquinolin-7-yl)-1-cyclobutyl-1H-indazol-3-yl)methoxy)-6-ethylphenyl)acetic acid]	1 to 10
CCOC(=O)Cc1ccccc1OCc1nn(CCF)c2ccc(Br)cc12 [Compound 182c, ethyl 2-(2-((5-bromo-1-(2-fluoroethyl)-1H-indazol-3-yl)methoxy)phenyl)acetate]	< 1
CC(C)(C)OC(=O)N1CC(Cn2nc(COc3ccccc3CC(=O)O)c3cc(-c4ccc5ccnc(N)c5c4)ccc32)C1 [Compound 194g, 2-(2-((5-(1-aminoisoquinolin-7-yl)-1-((1-(tert-butoxycarbonyl)azetidin-3-yl)methyl)-1H-indazol-3-yl)methoxy)phenyl)acetic acid]	< 1
CC(C)(C)OC(=O)N1CC(Cn2nc(COc3ccccc3CC(=O)O)c3cc(-c4cccc5c(N)nccc45)ccc32)C1 [Compound 195b, 2-(2-((5-(1-aminoisoquinolin-5-yl)-1-((1-(tert-butoxycarbonyl)azetidin-3-yl)methyl)-1H-indazol-3-yl)methoxy)phenyl)acetic acid]	< 1
Cn1nc(COc2ccccc2CC(=O)O)c2cc(-c3ccc4ccnc(N)c4c3)cnc21 [Compound 196e, 2-(2-((5-(1-aminoisoquinolin-7-yl)-1-methyl-1H-pyrazolo[3,4-b]pyridin-3-yl)methoxy)phenyl)acetic acid]	< 1
Nc1nccc2ccc(-c3cnc4c(c3)c(COc3ccccc3CC(=O)O)nn4C3CCC3)cc12 [Compound 197j, 2-(2-((5-(1-aminoisoquinolin-7-yl)-1-cyclobutyl-1H-pyrazolo[3,4-b]pyridin-3-yl)methoxy)phenyl)acetic acid]	< 1
Nc1nccc2ccc(-c3ccc4c(c3)C(Oc3ccccc3CC(=O)O)CC4)cc12 (stereo not drawn) [Compound 199d, 2-(2-((6-(1-aminoisoquinolin-7-yl)-2,3-dihydro-1H-inden-1-yl)oxy)phenyl)acetic acid]	< 1

Further lines, results first:

IC50 [µM]	SMILES
< 1	Nc1nccc2c(-c3ccc4c(c3)c(COc3ccc(F)cc3CC(=O)O)nn4C3CCC3)cccc12 [Compound 167b, 2-(2-((5-(1-aminoisoquinolin-5-yl)-1-cyclobutyl-1H-indazol-3-yl)methoxy)-5-fluorophenyl)acetic acid]
< 1	Nc1nccc2c(-c3ccc4c(c3)c(COc3cc(F)ccc3CC(=O)O)nn4C3CCC3)cccc12 [Compound 168c, 2-(2-((5-(1-aminoisoquinolin-5-yl)-1-cyclobutyl-1H-indazol-3-yl)methoxy)-4-fluorophenyl)acetic acid]
< 1	CCn1nc(COc2ccccc2CC(=O)O)c2cc(-c3cccc4c(N)nccc34)ccc21 [Compound 178f, 2-(2-((5-(1-aminoisoquinolin-5-yl)-1-ethyl-1H-indazol-3-yl)methoxy)phenyl)acetic acid]
< 1	CCn1nc(COc2ccccc2CC(=O)O)c2cc(-c3ccc4ccnc(N)c4c3)ccc21 [Compound 179b, 2-(2-((5-(1-aminoisoquinolin-7-yl)-1-ethyl-1H-indazol-3-yl)methoxy)phenyl)acetic acid]
< 1	CCc1cccc(OCc2nn(C3CCC3)c3ccc(-c4cccc5c(N)nccc45)cc23)c1CC(=O)O [Compound 181b, 2-(2-((5-(1-aminoisoquinolin-5-yl)-1-cyclobutyl-1H-indazol-3-yl)methoxy)-6-ethylphenyl)acetic acid]
< 1	Nc1nccc2c(-c3ccc4c(c3)c(COc3ccccc3CC(=O)O)nn4CCF)cccc12 [Compound 183b, 2-(2-((5-(1-aminoisoquinolin-5-yl)-1-(2-fluoroethyl)-1H-indazol-3-yl)methoxy)phenyl)acetic acid]
< 1	CCCCn1nc(COc2ccccc2CC(=O)O)c2cc(-c3ccc4ccnc(N)c4c3)ccc21 [Compound 184e, 2-(2-((5-(1-aminoisoquinolin-7-yl)-1-butyl-1H-indazol-3-yl)methoxy)phenyl)acetic acid]
< 1	CCCCn1nc(COc2ccccc2CC(=O)O)c2cc(-c3cccc4c(N)nccc34)ccc21 [Compound 185b, 2-(2-((5-(1-aminoisoquinolin-5-yl)-1-butyl-1H-indazol-3-yl)methoxy)phenyl)acetic acid]
< 1	CCCn1nc(COc2ccccc2CC(=O)O)c2cc(-c3ccc4ccnc(N)c4c3)ccc21 [Compound 186e, 2-(2-((5-(1-aminoisoquinolin-7-yl)-1-propyl-1H-indazol-3-yl)methoxy)phenyl)acetic acid]
< 1	CCCn1nc(COc2ccccc2CC(=O)O)c2cc(-c3cccc4c(N)nccc34)ccc21 [Compound 187b, 2-(2-((5-(1-aminoisoquinolin-5-yl)-1-propyl-1H-indazol-3-yl)methoxy)phenyl)acetic acid]
< 1	CC(C)Cn1nc(COc2ccccc2CC(=O)O)c2cc(-c3ccc4ccnc(N)c4c3)ccc21 [Compound 188e, 2-(2-((5-(1-aminoisoquinolin-7-yl)-1-isobutyl-1H-indazol-3-yl)methoxy)phenyl)acetic acid]
< 1	CC(C)Cn1nc(COc2ccccc2CC(=O)O)c2cc(-c3cccc4c(N)nccc34)ccc21 [Compound 189b, 2-(2-((5-(1-aminoisoquinolin-5-yl)-1-isobutyl-1H-indazol-3-yl)methoxy)phenyl)acetic acid]
< 1	CC[C@@H](C)n1nc(COc2ccccc2CC(=O)O)c2cc(-c3ccc4ccnc(N)c4c3)ccc21 [Compound 190e, (R)-2-(2-((5-(1-aminoisoquinolin-7-yl)-1-(sec-butyl)-1H-indazol-3-yl)methoxy)phenyl)acetic acid]
< 1	CC[C@@H](C)n1nc(COc2ccccc2CC(=O)O)c2cc(-c3cccc4c(N)nccc34)ccc21 [Compound 191b, (R)-2-(2-((5-(1-aminoisoquinolin-5-yl)-1-(sec-butyl)-1H-indazol-3-yl)methoxy)phenyl)acetic acid]
< 1	CC[C@H](C)n1nc(COc2ccccc2CC(=O)O)c2cc(-c3ccc4ccnc(N)c4c3)ccc21 [Compound 192e, (S)-2-(2-((5-(1-aminoisoquinolin-7-yl)-1-(sec-butyl)-1H-indazol-3-yl)methoxy)phenyl)acetic acid]
< 1	CC[C@H](C)n1nc(COc2ccccc2CC(=O)O)c2cc(-c3cccc4c(N)nccc34)ccc21 [Compound 193b, (S)-2-(2-((5-(1-aminoisoquinolin-5-yl)-1-(sec-butyl)-1H-indazol-3-yl)methoxy)phenyl)acetic acid]
< 1	Nc1nccc2c(-c3cnc4c(c3)c(COc3ccccc3CC(=O)O)nn4C3CCC3)cccc12 [Compound 198b, 2-(2-((5-(1-aminoisoquinolin-5-yl)-1-cyclobutyl-1H-pyrazolo[3,4-b]pyridin-3-yl)methoxy)phenyl)acetic acid]
